Measurements from ChEMBL document CHEMBL1201862, “PubChem BioAssay data set” (2004).
Where a name gives a salt, the structure may show the parent alone. Calls of active or inactive are those of the source.

Columns and labels:
[1] = inhibitors of SNCA 5'UTR-driven reporter translation, confirmation, H4 neuroglioma cells, luminescence (AID 1988); format: functional, cell-based
[2] = luciferase reporter signal reduction – luminescence, H4-C neuroglioblastoma cells, dose response (AID 2458); format: functional, cell-based;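 further: H4 neuroglioblastoma cells stably carrying a luciferase reporter gene fusion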
[3] = Luminescence Cell-Based Dose Response HTS to Identify Inhibitors of 5'UTR Stem-Loop Driven Prion Protein mRNA Translation in H4 Neuroglioblastoma Cells. [Related pubchem assays: 1827 (Project Summary), 1813 (Primary HTS)]; format: functional
[4] = inhibitors of firefly luciferase expression or activity, dose response, H4 neuroglioma cells, luminescence (AID 1990); format: functional, cell-based
cells [5] = format: functional, cell-based
[6] = inhibitors of SNCA 5'UTR-driven translation, confirmation, luminescence, H4 neuroglioblastoma cells, dose confirmation (AID 2454); format: functional, cell-based;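 further: H4 neuroglioblastoma cells carrying an alpha-synuclein 5'UTR luciferase reporter; potency for inhibition of the luciferase signal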
HeLa = assay: HeLa cell cytotoxicity, dose response, cytotoxicity control, 24 h, cherry-picked samples (AID 504726); format: functional, cell-based; settings: Homo sapiens;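 further: potency for cytotoxicity as loss of luminescence signal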
[7] = target: T1, Nuclear receptor subfamily 0 group B member 1 (Homo sapiens, UniProt P51843); format: functional, cell-based;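 further: HEK293T cells transfected with SF-1 and DAX-1 plus StAR promoter luciferase reporter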
T1 sequence (P51843 whole entry): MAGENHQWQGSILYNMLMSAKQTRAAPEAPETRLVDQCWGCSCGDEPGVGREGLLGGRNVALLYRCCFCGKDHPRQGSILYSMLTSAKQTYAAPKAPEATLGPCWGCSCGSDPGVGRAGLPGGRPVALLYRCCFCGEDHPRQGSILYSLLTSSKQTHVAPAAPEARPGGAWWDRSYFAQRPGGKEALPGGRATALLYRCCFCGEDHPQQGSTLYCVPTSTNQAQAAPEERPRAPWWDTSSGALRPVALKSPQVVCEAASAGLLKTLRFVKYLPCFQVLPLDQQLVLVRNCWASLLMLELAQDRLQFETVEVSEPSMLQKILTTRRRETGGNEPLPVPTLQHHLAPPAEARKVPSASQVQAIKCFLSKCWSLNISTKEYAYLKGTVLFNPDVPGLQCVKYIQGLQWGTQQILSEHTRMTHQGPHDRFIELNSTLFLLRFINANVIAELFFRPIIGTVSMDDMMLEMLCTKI

[8] = cytotoxicity in HEK-293T cells, dose response, cytotoxicity control for TCR NF-kB inhibitor project, luminescence, T-cell screen hits (AID 489026); format: functional, cell-based;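 further: cells exposed to compound about 14 hours before the viability readout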
cells [9] = format: functional, cell-based; remark: listed apart in the source
[10] = target: T2, Mannose-6-phosphate isomerase (Homo sapiens, UniProt P34949); assay: inhibitors of human PMI, primary screen, biochemical, fluorescence intensity, coupled assay (AID 1209)
T2 sequence (P34949 whole entry): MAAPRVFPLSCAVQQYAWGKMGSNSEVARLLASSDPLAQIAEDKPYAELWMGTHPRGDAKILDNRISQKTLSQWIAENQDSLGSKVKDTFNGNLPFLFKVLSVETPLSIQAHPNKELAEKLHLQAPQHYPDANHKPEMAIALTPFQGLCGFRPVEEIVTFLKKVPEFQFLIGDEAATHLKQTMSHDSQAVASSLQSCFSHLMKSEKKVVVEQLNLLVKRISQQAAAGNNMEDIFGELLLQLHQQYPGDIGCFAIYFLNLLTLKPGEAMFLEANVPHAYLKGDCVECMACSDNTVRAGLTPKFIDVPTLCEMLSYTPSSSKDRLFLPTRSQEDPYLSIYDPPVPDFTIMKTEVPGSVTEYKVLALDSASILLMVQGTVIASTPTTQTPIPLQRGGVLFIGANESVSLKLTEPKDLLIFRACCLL

[11] = target: T3, Heat shock factor protein 1 (Mus musculus, UniProt P38532); assay: HSF1 potentiators in luciferase reporter cells, confirmation, cell-based, NIH3T3, luminescence, dose retest (AID 435004); format: functional;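 further: stress induced by proteasome inhibitor MG132 added 30 min after compound; luciferase reporter driven by HSF1 response element in NIH3T3 cells; actives raise luminescence as potentiators of the MG132 stress response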
T3 sequence (P38532 whole entry): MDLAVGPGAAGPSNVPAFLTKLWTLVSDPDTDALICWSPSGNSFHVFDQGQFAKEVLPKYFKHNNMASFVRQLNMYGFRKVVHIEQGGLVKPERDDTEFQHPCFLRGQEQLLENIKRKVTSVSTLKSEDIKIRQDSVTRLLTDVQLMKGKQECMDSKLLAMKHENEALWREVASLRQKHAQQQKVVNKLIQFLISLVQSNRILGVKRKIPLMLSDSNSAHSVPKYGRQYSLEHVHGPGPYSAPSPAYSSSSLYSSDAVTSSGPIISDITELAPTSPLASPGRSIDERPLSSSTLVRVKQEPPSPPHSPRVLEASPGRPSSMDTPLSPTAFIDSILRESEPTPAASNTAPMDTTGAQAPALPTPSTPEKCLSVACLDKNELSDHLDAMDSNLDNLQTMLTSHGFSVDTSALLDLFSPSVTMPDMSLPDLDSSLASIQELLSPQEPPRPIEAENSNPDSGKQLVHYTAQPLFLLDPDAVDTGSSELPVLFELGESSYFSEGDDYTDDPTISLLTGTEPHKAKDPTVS

[12] = target: T4, Voltage-gated N-type calcium channel alpha-1B subunit/Amyloid beta A4 precursor protein-binding family A member 1 (Homo sapiens, UniProt Q00975+Q02410); assay: disruptors of Mint-PDZ/N-type channel peptide interaction – biochemical, HTRF, SAR follow-up (AID 2489); format: functional
[13] = target: T4, Voltage-gated N-type calcium channel alpha-1B subunit/Amyloid beta A4 precursor protein-binding family A member 1; format: protein assay
[14] = target: T4, Voltage-gated N-type calcium channel alpha-1B subunit/Amyloid beta A4 precursor protein-binding family A member 1; format: protein assay; remark: listed apart in the source
[15] = target: Glutathione-S-transferase (Schistosoma japonicum, UniProt Q26513); assay: biotin-GST/anti-GST TR-FRET signal inhibitors, dose response, artefact control for Vif-APOBEC3G degradation inhibitor project, biochemical (AID 1117362); format: functional
Estrogen receptor beta = Estrogen receptor beta (Homo sapiens, UniProt Q92731); assay: ERβ–SRC-3 coactivator interaction inhibitors, confirmation, orthogonal assay, biochemical, ELISA, streptavidin-HRP readout (AID 1060)
[16] = A Cell Based Secondary Assay To Explore Cytotoxicity of Compounds that Sensitize Mycobacterium Tuberculosis to Beta-Lactam Antibiotics.; format: functional
[17] = target: T5, Eukaryotic translation initiation factor 4H (Homo sapiens, UniProt Q15056); assay: eIF4H inhibition in translation initiation, SAR follow-up (AID 435011); format: functional
[18] = target: T6, Polyadenylate-binding protein 1 (Homo sapiens, UniProt P11940); assay: PABP inhibition in translation initiation, SAR follow-up (AID 435018); format: functional
[19] = target: DNA dC->dU-editing enzyme APOBEC-3A (Homo sapiens, UniProt P31941); assay: Dose Response confirmation of small molecule APOBEC3A DNA Deaminase Inhibitors via a fluorescence-based single-stranded DNA deaminase assay. [Related pubchem assays (depositor defined):AID493011, AID493024]; format: functional
[20] = target: T6, Polyadenylate-binding protein 1; assay: PABP poly(A) RNA binding inhibitors, primary screen, biochemical, fluorescence polarization, uHTS (AID 2014)
[21] = target: T5, Eukaryotic translation initiation factor 4H; assay: human eIF4H binding inhibitors, primary screen, translation initiation inhibitor project, biochemical, uHTS, fluorescence polarization (AID 2012)
[22] = target: DNA dC->dU-editing enzyme APOBEC-3G (Homo sapiens, UniProt Q9HC16); format: functional;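 further: Dose-response counterscreen measuring inhibition of APOBEC3G DNA deaminase activity, run while confirming APOBEC3A inhibitors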
Chain of DNA dC->dU-editing enzyme APOBEC-3G (Q9HC16 whole entry): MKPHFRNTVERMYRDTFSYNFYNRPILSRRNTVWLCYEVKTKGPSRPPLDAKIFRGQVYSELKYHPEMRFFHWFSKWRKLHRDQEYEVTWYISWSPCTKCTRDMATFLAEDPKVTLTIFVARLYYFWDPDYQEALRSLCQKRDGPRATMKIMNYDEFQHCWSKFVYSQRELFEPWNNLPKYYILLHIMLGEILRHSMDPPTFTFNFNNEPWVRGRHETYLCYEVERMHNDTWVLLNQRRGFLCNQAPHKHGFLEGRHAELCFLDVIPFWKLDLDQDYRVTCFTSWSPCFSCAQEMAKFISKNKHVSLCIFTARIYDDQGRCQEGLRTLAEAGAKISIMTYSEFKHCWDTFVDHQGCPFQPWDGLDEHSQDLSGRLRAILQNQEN

T4 sequence (Q00975 whole entry): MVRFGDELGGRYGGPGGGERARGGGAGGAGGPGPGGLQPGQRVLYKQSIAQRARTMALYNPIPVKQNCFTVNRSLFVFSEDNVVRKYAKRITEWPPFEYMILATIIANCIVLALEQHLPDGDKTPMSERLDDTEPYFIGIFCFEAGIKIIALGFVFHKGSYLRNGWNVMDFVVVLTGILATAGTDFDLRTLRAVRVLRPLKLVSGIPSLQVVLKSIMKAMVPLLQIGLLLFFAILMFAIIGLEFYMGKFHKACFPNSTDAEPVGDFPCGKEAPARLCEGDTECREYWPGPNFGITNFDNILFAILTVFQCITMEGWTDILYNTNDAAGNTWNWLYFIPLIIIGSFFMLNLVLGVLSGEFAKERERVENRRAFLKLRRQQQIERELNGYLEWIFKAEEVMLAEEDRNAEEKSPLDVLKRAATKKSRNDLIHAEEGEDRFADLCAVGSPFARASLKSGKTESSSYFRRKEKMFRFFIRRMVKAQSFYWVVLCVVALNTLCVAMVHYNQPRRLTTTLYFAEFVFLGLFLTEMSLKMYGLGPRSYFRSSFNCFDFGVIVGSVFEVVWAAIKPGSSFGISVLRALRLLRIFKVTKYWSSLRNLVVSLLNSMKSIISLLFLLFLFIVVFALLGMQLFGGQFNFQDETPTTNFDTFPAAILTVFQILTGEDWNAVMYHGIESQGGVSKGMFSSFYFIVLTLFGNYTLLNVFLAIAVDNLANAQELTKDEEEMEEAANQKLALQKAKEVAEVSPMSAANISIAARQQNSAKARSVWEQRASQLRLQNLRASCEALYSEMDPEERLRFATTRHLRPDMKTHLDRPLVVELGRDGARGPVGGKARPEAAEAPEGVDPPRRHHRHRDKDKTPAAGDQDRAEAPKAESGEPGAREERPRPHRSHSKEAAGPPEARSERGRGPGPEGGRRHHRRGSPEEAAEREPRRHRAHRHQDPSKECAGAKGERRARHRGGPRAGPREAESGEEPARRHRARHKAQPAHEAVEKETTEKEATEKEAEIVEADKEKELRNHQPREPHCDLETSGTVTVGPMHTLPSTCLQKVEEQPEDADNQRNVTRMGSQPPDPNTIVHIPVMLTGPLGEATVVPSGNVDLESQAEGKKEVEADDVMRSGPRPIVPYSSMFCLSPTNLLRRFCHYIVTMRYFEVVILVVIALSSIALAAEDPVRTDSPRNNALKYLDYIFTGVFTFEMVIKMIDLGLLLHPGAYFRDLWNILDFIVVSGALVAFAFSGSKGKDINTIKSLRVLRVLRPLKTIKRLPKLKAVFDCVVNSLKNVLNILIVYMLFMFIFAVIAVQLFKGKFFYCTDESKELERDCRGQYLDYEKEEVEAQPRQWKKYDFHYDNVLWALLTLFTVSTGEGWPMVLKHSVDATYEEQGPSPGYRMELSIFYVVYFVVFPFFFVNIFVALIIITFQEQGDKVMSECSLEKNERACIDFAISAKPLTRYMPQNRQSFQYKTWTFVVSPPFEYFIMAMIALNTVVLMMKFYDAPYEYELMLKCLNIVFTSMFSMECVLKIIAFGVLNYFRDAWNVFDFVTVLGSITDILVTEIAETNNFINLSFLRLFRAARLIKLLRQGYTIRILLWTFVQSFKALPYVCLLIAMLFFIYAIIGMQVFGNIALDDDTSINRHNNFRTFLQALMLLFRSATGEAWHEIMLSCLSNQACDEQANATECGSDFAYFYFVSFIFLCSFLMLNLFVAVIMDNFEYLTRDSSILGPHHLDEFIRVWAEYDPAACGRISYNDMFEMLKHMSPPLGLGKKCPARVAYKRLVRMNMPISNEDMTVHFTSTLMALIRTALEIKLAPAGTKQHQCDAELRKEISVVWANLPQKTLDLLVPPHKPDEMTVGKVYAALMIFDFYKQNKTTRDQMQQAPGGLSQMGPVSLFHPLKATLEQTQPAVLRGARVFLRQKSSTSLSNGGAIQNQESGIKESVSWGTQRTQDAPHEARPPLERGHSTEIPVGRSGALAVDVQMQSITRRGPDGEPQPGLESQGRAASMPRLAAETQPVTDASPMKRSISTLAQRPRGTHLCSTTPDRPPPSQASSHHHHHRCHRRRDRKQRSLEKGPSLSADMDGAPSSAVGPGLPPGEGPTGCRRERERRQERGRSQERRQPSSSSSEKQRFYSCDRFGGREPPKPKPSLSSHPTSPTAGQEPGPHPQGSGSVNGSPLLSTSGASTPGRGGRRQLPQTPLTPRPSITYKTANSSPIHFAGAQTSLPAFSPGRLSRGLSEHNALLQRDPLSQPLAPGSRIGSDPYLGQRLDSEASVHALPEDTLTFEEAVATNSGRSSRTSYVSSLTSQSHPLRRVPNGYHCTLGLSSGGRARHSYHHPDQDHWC
T4 sequence (Q02410 whole entry): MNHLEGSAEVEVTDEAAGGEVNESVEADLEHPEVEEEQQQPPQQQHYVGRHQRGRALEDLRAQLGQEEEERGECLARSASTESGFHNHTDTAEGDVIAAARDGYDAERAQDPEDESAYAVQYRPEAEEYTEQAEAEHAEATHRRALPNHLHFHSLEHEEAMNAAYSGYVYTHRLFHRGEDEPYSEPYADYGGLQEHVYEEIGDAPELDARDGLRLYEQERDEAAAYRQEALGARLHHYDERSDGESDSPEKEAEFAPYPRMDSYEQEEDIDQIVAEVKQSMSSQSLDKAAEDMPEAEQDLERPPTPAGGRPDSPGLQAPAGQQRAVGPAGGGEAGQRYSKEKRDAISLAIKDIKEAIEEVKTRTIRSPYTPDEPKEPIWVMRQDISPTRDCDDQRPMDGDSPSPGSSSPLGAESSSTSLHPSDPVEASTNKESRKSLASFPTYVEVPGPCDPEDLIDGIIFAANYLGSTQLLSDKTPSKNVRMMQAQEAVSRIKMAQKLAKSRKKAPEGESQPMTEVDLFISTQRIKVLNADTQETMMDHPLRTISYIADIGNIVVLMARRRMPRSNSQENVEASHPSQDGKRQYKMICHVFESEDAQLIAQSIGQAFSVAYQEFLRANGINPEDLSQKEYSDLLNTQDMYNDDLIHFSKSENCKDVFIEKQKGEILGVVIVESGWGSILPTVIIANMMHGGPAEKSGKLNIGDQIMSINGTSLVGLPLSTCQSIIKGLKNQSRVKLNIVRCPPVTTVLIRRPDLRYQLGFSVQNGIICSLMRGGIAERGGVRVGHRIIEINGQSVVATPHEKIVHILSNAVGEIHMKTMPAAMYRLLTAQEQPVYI
T6 sequence (P11940 whole entry): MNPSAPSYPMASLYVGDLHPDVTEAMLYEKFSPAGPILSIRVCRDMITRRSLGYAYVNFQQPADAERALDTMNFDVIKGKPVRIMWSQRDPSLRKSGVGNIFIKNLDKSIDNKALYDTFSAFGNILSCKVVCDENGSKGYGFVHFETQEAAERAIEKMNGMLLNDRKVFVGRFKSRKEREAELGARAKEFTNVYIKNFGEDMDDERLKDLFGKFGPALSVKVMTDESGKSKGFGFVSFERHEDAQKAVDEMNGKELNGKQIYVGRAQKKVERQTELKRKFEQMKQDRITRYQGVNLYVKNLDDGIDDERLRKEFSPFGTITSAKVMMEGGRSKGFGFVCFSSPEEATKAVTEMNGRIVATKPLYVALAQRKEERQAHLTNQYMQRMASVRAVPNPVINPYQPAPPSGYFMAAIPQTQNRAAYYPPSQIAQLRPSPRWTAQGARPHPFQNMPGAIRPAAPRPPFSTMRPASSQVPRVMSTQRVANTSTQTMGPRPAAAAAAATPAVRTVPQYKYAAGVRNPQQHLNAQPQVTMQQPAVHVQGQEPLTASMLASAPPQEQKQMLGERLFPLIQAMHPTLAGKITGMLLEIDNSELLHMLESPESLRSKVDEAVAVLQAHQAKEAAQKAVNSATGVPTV
Chain of Glutathione-S-transferase (Q26513 whole entry): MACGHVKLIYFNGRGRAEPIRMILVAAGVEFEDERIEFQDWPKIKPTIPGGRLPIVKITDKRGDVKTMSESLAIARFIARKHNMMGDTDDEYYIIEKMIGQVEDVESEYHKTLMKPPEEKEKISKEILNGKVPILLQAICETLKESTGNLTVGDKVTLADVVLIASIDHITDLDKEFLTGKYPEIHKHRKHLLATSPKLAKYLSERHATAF
Chain of DNA dC->dU-editing enzyme APOBEC-3A (P31941 whole entry): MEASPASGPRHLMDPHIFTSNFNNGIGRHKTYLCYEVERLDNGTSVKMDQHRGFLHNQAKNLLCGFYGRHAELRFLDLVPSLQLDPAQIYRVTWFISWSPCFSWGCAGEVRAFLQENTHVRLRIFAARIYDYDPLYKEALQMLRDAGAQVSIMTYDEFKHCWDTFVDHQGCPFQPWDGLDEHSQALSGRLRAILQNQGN

C=CCn1c(SCc2ccc(Cl)cc2)nc2c1c(=O)[nH]c(=O)n2C
EC50 [1]: > 120 µM (not active) | EC50 [2]: > 12 µM (not active) | EC50 [3]: < 0.1 µM (active) | EC50 [4]: 29.3 µM (active) | EC50 (cells [5]): > 12 µM (not active) | EC50 [6]: > 12 µM (not active)

Oc1ccccc1/C=N/c1ccccc1-c1nc2ccccc2[nH]1
AC50 (HeLa): 241 µM (active)

CC[C@]1(O)CC2CN(CCc3c([nH]c4ccccc34)[C@@](C(=O)OC)(c3cc4c(cc3OC)N(C=O)[C@H]3[C@@](O)(C(=O)OC)[C@H](OC(C)=O)[C@]5(CC)C=CCN6CC[C@]43[C@@H]65)C2)C1 (stereo not given in full) [VINCRISTINE SULFATE]
IC50 [7]: > 0.278 µM (active) | IC50 [8]: > 80 µM (inactive) | IC50 (cells [9]): > 67.5 µM (inactive) | EC50 [1]: < 0.1 µM (active) | EC50 [2]: 0.047 µM (active) | EC50 [3]: < 0.1 µM (active) | EC50 [4]: < 0.1 µM (active) | EC50 (cells [5]): 0.063 µM (active) | EC50 [6]: 0.055 µM (active)

Cc1ccc2cccnc2c1NC(=S)NC(=O)c1ccccc1
IC50 [10]: > 50 µM (not active) | EC50 [11]: > 260 µM (inactive)

O=C(c1ccc2nc(-c3ccco3)c(-c3ccco3)nc2c1)N1CCC2(CC1)OCCO2
IC50 [12]: > 56.8 µM (inactive) | IC50 [13]: 2.45 µM (active) | IC50 [14]: 1.39 µM (active) | IC50 [15]: > 100 µM (active) | IC50 (Estrogen receptor beta): 8.97 µM (not active)

CCOC(=O)c1c(C)n(-c2ccccc2)c2ccc(OCCN(C)C)cc12
CC50 [16]: > 40 µM (active)

Cc1ccc(NC(=O)C2CCCN2C(=O)Oc2ccccc2)cc1 (stereo not given)
IC50 [17]: > 100 µM (inactive) | IC50 [18]: > 100 µM (inactive)

Cc1cccc(C(=O)Nc2ccc(S(=O)(=O)N3CCOCC3)cc2C)c1
IC50 [19]: 4.44 µM (active) | IC50 [20]: 11.2 µM (active) | IC50 [21]: > 100 µM (inactive) | IC50 [22]: 9.37 µM (active)
